Test results published in patent US20240245677A1, “SELECTED COMPOUNDS FOR TARGETED DEGRADATION OF BRD9” (C4 THERAPEUTICS, INC., priority 2021, published 2024).
Like-named read-outs stand apart in the source and are kept apart here.

Target: T1, BRD9 (Homo sapiens, UniProt Q9H8M2)
T1 sequence (Q9H8M2 1-597): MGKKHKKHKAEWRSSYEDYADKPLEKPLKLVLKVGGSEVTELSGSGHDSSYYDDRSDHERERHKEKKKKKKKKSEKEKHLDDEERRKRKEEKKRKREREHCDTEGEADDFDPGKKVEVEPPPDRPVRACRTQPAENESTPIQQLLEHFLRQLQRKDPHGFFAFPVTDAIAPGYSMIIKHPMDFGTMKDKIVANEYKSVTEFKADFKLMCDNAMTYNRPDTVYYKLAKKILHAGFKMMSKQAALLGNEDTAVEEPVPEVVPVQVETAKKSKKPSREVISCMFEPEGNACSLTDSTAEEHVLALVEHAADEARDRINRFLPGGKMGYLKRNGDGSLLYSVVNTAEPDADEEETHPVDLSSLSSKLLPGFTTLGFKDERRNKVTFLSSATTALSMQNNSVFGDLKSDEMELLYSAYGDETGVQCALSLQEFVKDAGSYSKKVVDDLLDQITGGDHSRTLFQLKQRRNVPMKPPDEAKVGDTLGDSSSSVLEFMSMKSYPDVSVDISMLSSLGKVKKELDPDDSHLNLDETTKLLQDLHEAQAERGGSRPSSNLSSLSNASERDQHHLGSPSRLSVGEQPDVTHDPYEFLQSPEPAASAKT
Assay: BRD9 degradation in Yamato-SS cells (endogenous), Western blot
Format: cell-based
Conditions: percent BRD9 detected, read-out: Emax(%)
Description: The purpose of this study was to evaluate the detection of BRD9 in a human cell line and susceptibility to degradation by Compound 1.
Previously frozen YAMATO-SS human cells (provided by the RIKEN BRC through the National BioResource Project of the MEXT/AMED, Japan (cat #RCB3577)) were thawed. Upon thawing, the cells were transferred to a 15 mL conical tube containing 10 mL of warm RPMI-1640 medium (Catalog No. C2400500BT, Gibco, Grand Island, NY, USA) supplemented with 10% FBS (Catalog No. SV30087.03, Cytiva, Marlborough, MA, USA) and spun down for 5 minutes at 1200 rpm. An aliquot was diluted 2× with Trypan Blue solution 0.4% (Catalog No. 15250061, ThermoSischer Scientific, Waltham, MA, USA) and cell count was determined. […]
Samples were boiled for 5 minutes and placed on ice for 30 minutes. […] Supernatants were transferred to a new 2.0 mL microcentrifuge tube and total protein concentrations were measured using Pierce™ BCA Protein Assay Kit (Catalog No. 23225, ThermoFischer Scientific, Waltham, MA USA).
After total protein quantification, all samples were diluted to a fixed μg/μL of protein in 6× loading buffer (Catalog No. BP-111R, Boston Bioproducts, Inc., Milford, MA, USA) for a final concentration of 40 μg of total protein in 1× loading buffer per lane. […]

SMILES: COc1cc(-c2cn(C)c(=O)c(C)c2C)cc(OC)c1CN1CC[C@H](N2CCN(c3ccc(N[C@H]4CCC(=O)NC4=O)cc3F)CC2)C(F)(F)C1 [Compound 1, (S)-3-((4-(4-((S)-1-(2,6-dimethoxy-4-(1,4,5-trimethyl-6-oxo-1,6-dihydropyridin-3-yl)benzyl)-3,3-difluoropiperidin-4-yl)piperazin-1-yl)-3-fluorophenyl)amino)-piperidine-2,6-dione]
- % BRD9 remaining (4 hr): 1.2%
- % BRD9 remaining (24 hr): 3.4%
